These results are taken from US8835484B2, “Naphthocyanines for use as contrast agents” (Alamedics GmbH & Co. KG, priority 2010, dated 2014).

Data set [1] is described as follows: Solid cyanine dye stability comparison. The note with it: storage. Type of data set: physicochemical. From the text:
Decomposition of the solid dye results in a red coloration of the solid and the solution. Carboxylic acid esters, especially methyl ester, are particularly sensitive in addition to the bromides.

The subject of another data set is lens capsule. Put plainly: Dye tests on porcine eyes (lens capsule staining). Further details: key: +++: visually assessed very strong coloration; ++: good coloration; +: satisfactory coloration; −: weak or absent coloration. The note with it: incubated, rinsed after one minute. On the procedure:
For the dye test, in each case 5 mg dye was dissolved in 500 μL ethanol and diluted to 2 mL with BSS Plus solution as the stock solution, and then correspondingly further diluted. As an alternative, one can prepare stock solutions of the dye by dissolving, for example, 5 mg dye in 1 mL distilled water, adding 7 mL BSS solution and then combining with 1 mL NaCl solution having an osmolality of 620 (approximately 2%) in order to restore the original osmolality of the BSS solution (308). This stock solution can be correspondingly further diluted with BSS solution as required. Enucleated porcine eyes were used having a post mortem time period of a few hours. To dye the lens capsule, the cornea was first removed. Thereafter, the iris was resected and the capsular support was severed. The lens with intact lens capsule was removed and placed in a bowl filled with BSS. The lenses were thereafter incubated with the dyes according to the invention at various concentrations and then rinsed after one minute. The dye pattern was photographically documented, whereby the coloration was assessed without additional illumination, and fluorescence was assessed with illumination (Xenon lamp, halogen lamp with typical endoillumination source and fiber optics). The lens capsule is a very good model for dyeing due to the fact that it is a basal membrane, as is the ILM of the retina. Both structures are important target structures in eye surgery.

Data set [2] in a line: Fluorescence quantum yield. The note with it: CHCl3; Reference: S-13 with Φ=1.00. It is filed as physicochemical. From the text: IR spectra: Perkin Elmer Spectrum BX II, using a diamond anvil cell; UV/Vis spectra: Varian Cary 5000 and Bruins Omega 20; fluorescence spectra: Varian Eclispe; NMR spectroscopy: Varian Vnmrs 600 (600 MHz, 400 MHz, 200 MHz); mass spectrometry: Thermo Finnigan LQT FT.

A short description of data set [3]: Solid cyanine dye stability comparison. Type of data set: physicochemical. The note with it: after work-up, forming a yellow color.
The subject of the next data set is retina. The note with it: cited from earlier work.
For data set [4], the system named is internal limiting membrane (ILM). The note with it: literature experiments; cited from earlier work.

What is called melting point is the temperature of the solid-liquid transition.

Counter-ions that a name gives are not always drawn. A value given as a limit tells only on which side of the number the result lay.

Turning to “3,3′-Di-(10-bromodecyl)-1,1,1′,1′-tetramethyl-1H-disulfobenzo[e]indocarbocyanine bromide [Dye 6i]”, the Stability result in data set [1] is “Decomposition after 2 days”. Further, the “coloration of lens capsule” value in the data set on lens capsule (dye concentration 0.5%) and in the data set with lens capsule (dye concentration 1.0) was “decomposed” each time. In data set [2], this compound had a Fluorescence quantum yield of 0.13.

`CC1(C)C(/C=C/C=C2\N(CCCCS(=O)(=O)O)c3ccc4ccccc4c3C2(C)C)=[N+](CCCCS(=O)(=O)[O-])c2ccc3ccccc3c21` (as salt: bromide) [Dye 3t, 3,3′-Di-(4-sulfobutyl)-1,1,1′,1′-tetramethyl-1H-dibenzo[e]indocarbocyanine bromide]: the melting point is greater than 250 °C.

With `CC1(C)C(/C=C/C=C2\N(CCCCS(=O)(=O)[O-])c3ccc4c(S(=O)(=O)O)cccc4c3C2(C)C)=[N+](CCCCS(=O)(=O)O)c2ccc3c(S(=O)(=O)O)cccc3c21` (as salt: bromide) [Dye 6a, 3,3′-Di-(4-sulfobutyl)-1,1,1′,1′-tetramethyl-1H-disulfobenzo[e]indocarbocyanine bromide], the melting point is greater than 150 °C.

Compound `CC1(C)C(/C=C/C=C2\N(CCC(=O)O)c3ccc4ccccc4c3C2(C)C)=[N+](CCC(=O)O)c2ccc3ccccc3c21.[Br-]` (hydrate or solvate) [Dye 3a, 3,3′-Di-(2-carboxyethyl)-1,1,1′,1′-tetramethyl-1H-dibenzo[e]indocarbocyanine bromide] gave a melting point of 199 °C.

Turning to `CC1(C)C(/C=C/C=C2\N(CCCCS(=O)(=O)O)c3ccc4ccccc4c3C2(C)C)=[N+](CCCCS(=O)(=O)[O-])c2ccc3ccccc3c21` [Dye 3t, 3,3′-Di-(4-sulfobutyl)-1,1,1′,1′-tetramethyl-1H-dibenzo[e]indocarbocyanine bromide], the Stability result in data set [1] is reported as “No decomposition after 3 years”. Also, the “coloration of lens capsule” value in the data set on lens capsule (dye concentration 0.0025%) is listed as “−”; with lens capsule (dye concentration 0.025%), “+”; with lens capsule (dye concentration 0.25%) it was “++”; in the data set on lens capsule (dye concentration 0.5%), “+++”. Besides, the Fluorescence quantum yield in data set [2] is recorded as 0.32.

On to `CC1(C)C(=CC=CC2=[N+](CCCCCS(=O)(=O)O)c3ccc4ccccc4c3C2(C)C)N(CCCCCS(=O)(=O)O)c2ccc3ccccc3c21.[Br-]` [Dye 3u, 3,3′-Di-(5-sulfopentyl)-1,1,1′,1′-tetramethyl-1H-dibenzo[e]indocarbocyanine bromide], for which, in data set [1], the Stability entry is “No decomposition after 4 months”. Moreover, the figures for the “coloration of lens capsule” value in the data set with lens capsule (dye concentration 0.5%) and with lens capsule (dye concentration 1.0) were “−” and “+”, respectively. In data set [2], this compound came in with a Fluorescence quantum yield of 0.13.

For `CC1(C)C(=CC=CC2=[N+](CCCCCCCCCCS(=O)(=O)O)c3ccc4ccccc4c3C2(C)C)N(CCCCCCCCCCS(=O)(=O)O)c2ccc3ccccc3c21.[Br-]` [Dye 3v, 3,3′-Di-(10-sulfodecyl)-1,1,1′,1′-tetramethyl-1H-dibenzo[e]indocarbocyanine bromide], in data set [1], the Stability result is given as “No decomposition after 4 months”. Besides, the “coloration of lens capsule” value with lens capsule (dye concentration 0.5%) and with lens capsule (dye concentration 1.0) was “−” in each case. In data set [2], this compound gave a Fluorescence quantum yield of 0.14.

Regarding `CC1(C)C(/C=C/C=C2\N(CCCCS(=O)(=O)[O-])c3ccc4c(S(=O)(=O)O)cccc4c3C2(C)C)=[N+](CCCCS(=O)(=O)O)c2ccc3c(S(=O)(=O)O)cccc3c21` [Dye 6a, 3,3′-Di-(4-sulfobutyl)-1,1,1′,1′-tetramethyl-1H-disulfobenzo[e]indocarbocyanine bromide], the Stability entry in data set [1] is on record as “No decomposition after 4 months”. Moreover, the “coloration of lens capsule” value in the data set on lens capsule (dye concentration 0.5%) and with lens capsule (dye concentration 1.0) was “+++” in each case. The Fluorescence quantum yield in data set [2] came to 0.33.

In the case of `CC1(C)C(/C=C/C=C2\N(CCC(=O)O)c3ccc4c(S(=O)(=O)O)cccc4c3C2(C)C)=[N+](CCC(=O)O)c2ccc3c(S(=O)(=O)O)cccc3c21.[Br-]` [Dye 6b, 3,3′-Di-(2-carboxyethyl)-1,1,1′,1′-tetramethyl-1H-disulfobenzo[e]indocarbocyanine bromide], the melting point is > 180 °C (dec.). The Stability entry in data set [1] was “Decomposition after a few days”. In addition, the “coloration of lens capsule” value with lens capsule (dye concentration 0.5%) is “+++”. In addition, in the data set on lens capsule (dye concentration 1.0), the “coloration of lens capsule” value is “+++”. In data set [2], this compound had a Fluorescence quantum yield of 0.21.

Turning to `CC1(C)C(/C=C/C=C2\N(CCCCCCCCCCC(=O)O)c3ccc4c(S(=O)(=O)O)cccc4c3C2(C)C)=[N+](CCCCCCCCCCC(=O)O)c2ccc3c(S(=O)(=O)O)cccc3c21.[Br-]` [Dye 6c, 3,3′-Di-(10-carboxydecyl)-1,1,1′,1′-tetramethyl-1H-disulfobenzo[e]indocarbocyanine bromide], the melting point was > 150 °C (dec.). In addition, in data set [1], the Stability entry is recorded as “No decomposition after 3 months”. Also, the “coloration of lens capsule” value with lens capsule (dye concentration 0.5%) is “++”. Also, the “coloration of lens capsule” value in the data set on lens capsule (dye concentration 1.0) is listed as “++”. The Fluorescence quantum yield in data set [2] came to 0.31.

In the case of `COC(=O)CCCCCCCCCCN1/C(=C\C=C\C2=[N+](CCCCCCCCCCC(=O)OC)c3ccc4c(S(=O)(=O)O)cccc4c3C2(C)C)C(C)(C)c2c1ccc1c(S(=O)(=O)O)cccc21.[Br-]` [Dye 6d, 3,3′-Di-(10-methoxycarbonyldecyl)-1,1,1′,1′-tetramethyl-1H-disulfobenzo[e]indocarbocyanine bromide], the melting point is > 150 °C (dec.). The Stability entry in data set [1] was “Decomposition after 1 month”. Further, in the data set with lens capsule (dye concentration 0.5%), the “coloration of lens capsule” value is “decomposed”. Also, the “coloration of lens capsule” value with lens capsule (dye concentration 1.0) is “decomposed”. In data set [2], this compound registered a Fluorescence quantum yield of 0.25.

Regarding `CCOC(=O)CCN1/C(=C\C=C\C2=[N+](CCC(=O)OCC)c3ccc4c(S(=O)(=O)O)cccc4c3C2(C)C)C(C)(C)c2c1ccc1c(S(=O)(=O)O)cccc21.[Br-]` [Dye 6e, 3,3′-Di-(2-ethoxycarbonylethyl)-1,1,1′,1′-tetramethyl-1H-disulfobenzo[e]indocarbocyanine bromide], the melting point is > 150 °C (dec.). The Stability entry in data set [1] is listed as “Decomposition after 2 months”. For the same compound, in the data set with lens capsule (dye concentration 0.5%), the “coloration of lens capsule” value is on record as “decomposed”. For the same compound, in the data set with lens capsule (dye concentration 1.0), the “coloration of lens capsule” value is “decomposed”. Besides, the Fluorescence quantum yield in data set [2] turned out to be 0.18.

Consider `CCOC(=O)CCCCN1/C(=C\C=C\C2=[N+](CCCCC(=O)OCC)c3ccc4c(S(=O)(=O)O)cccc4c3C2(C)C)C(C)(C)c2c1ccc1c(S(=O)(=O)O)cccc21.[Br-]` [Dye 6f, 3,3′-Di-(4-ethoxycarbonylbutyl)-1,1,1′,1′-tetramethyl-1H-disulfobenzo[e]indocarbocyanine bromide], for which the melting point was > 150 °C (dec.). Besides, the Stability result in data set [1] is “Decomposition after 2 months”. In addition, the “coloration of lens capsule” value with lens capsule (dye concentration 0.5%) was “decomposed”. In the data set on lens capsule (dye concentration 1.0), the “coloration of lens capsule” value is listed as “decomposed”. Moreover, the Fluorescence quantum yield in data set [2] stood at 0.11. Besides, the “decomposition of the dye after preparation” value in data set [3] is listed as “decomposes as soon as after one day”.

Turning to `CCOC(=O)CCCCCN1/C(=C\C=C\C2=[N+](CCCCCC(=O)OCC)c3ccc4c(S(=O)(=O)O)cccc4c3C2(C)C)C(C)(C)c2c1ccc1c(S(=O)(=O)O)cccc21.[Br-]` [Dye 6g, 3,3′-Di-(5-ethoxycarbonylpentyl)-1,1,1′,1′-tetramethyl-1H-disulfobenzo[e]indocarbocyanine bromide], the melting point is > 150 °C (dec.). In data set [1], the Stability entry is given as “No decomposition after 3 months”. Besides, in the data set on lens capsule (dye concentration 0.5%), the “coloration of lens capsule” value is “++”. The “coloration of lens capsule” value in the data set with lens capsule (dye concentration 1.0) was “++”. Moreover, the Fluorescence quantum yield in data set [2] amounted to 0.22.

Regarding `CCCCCN1/C(=C\C=C\C2=[N+](CCCCC)c3ccc4ccccc4c3C2(C)C)C(C)(C)c2c1ccc1ccccc21.[Br-]` [Dye 6j, 3,3′-Di-(pentyl)-1,1,1′,1′-tetramethyl-1H-dibenzo[e]indocarbocyanine bromide], the melting point was > 150 °C (dec.). Besides, the Fluorescence quantum yield in data set [2] is listed as 0.20.

For the compound `CC1(C)C(/C=C/C=C/C=C/C=C2\N(CCCCS(=O)(=O)O)c3ccc4ccccc4c3C2(C)C)=[N+](CCCCS(=O)(=O)[O-])c2ccc3ccccc3c21` [ICG, indocyanine green], in the data set with retina, the “toxic effect on the retina” value is recorded as “toxic effect on the retina which is difficult to control”. For the same compound, the “staining of the ILM” value in data set [4] was “Selective staining”.
